Measured values taken from ChEMBL document CHEMBL3301361, “Experimental in vitro DMPK and physicochemical data on a set of publicly disclosed compounds”.
≈ marks a conversion by molar mass, not a printed value.

How the values were obtained:
physchem [1] = settings: pH 7.4 buffer
physchem [2] = settings: octan-1-ol/water, pH 7.4, LogD7.4

solubility thermodynamic (physchem [1])	logD (physchem [2])	SMILES
70.8 µM (≈ 24.8 µg/mL)	3.72	CC(C)Cn1cnc(-c2ccccc2)c1-c1nc2c(N)ncnc2s1
35.5 µM (≈ 10.4 µg/mL)	3.58	Cc1ncc(-c2ccnc(Nc3ccccc3)n2)n1C(C)C
11 µM (≈ 3.62 µg/mL)	3.8	Cn1c2ccccc2c2cc(NC(=O)CCc3ccncc3)ccc21
1.9 µM (≈ 0.822 µg/mL)	3.4	COCC(=O)N1CCC(n2cc(-c3cnc(N)c(-c4nc5ccccc5o4)c3)cn2)CC1
11.5 µM (≈ 4.77 µg/mL)	3.7	CS(=O)(=O)c1cccc(Nc2nccc(Nc3c(Cl)ccc4ccoc34)n2)c1
5.4 µM (≈ 2.05 µg/mL)	3.52	CS(=O)(=O)c1cccc(Nc2nccc(Nc3cccc4ccoc34)n2)c1
0.7 µM (≈ 0.195 µg/mL)	3.63	COc1ccc(Cl)cc1NC(=O)Nc1cnccn1
12.6 µM (≈ 3.15 µg/mL)	3.8	c1ccc(Nc2cc(Nc3ccccc3)[nH]n2)cc1
107 µM (≈ 25.4 µg/mL)	3.42	Oc1nc(-c2ccccc2)c(-c2ccccc2)o1
2.5 µM (≈ 0.901 µg/mL)	3.4	O=C(c1ccc(F)cc1)C1CCN(C(=S)Nc2ccc(F)cc2)CC1
52.5 µM (≈ 13.3 µg/mL)	3.8	O=C(NCCCCc1ccccc1)c1ccccc1
3 µM (≈ 1.44 µg/mL)	3.73	CC1(C)C(=O)N(c2ccc(SC(F)(F)F)cc2)C(=O)N1Cc1ccnc(N2CCOCC2)c1
39.8 µM (≈ 19.6 µg/mL)	3.44	Cc1ccc(CO)cc1N(C)c1ccnc(Nc2cc(N3CCOCC3)nc(N3CCOCC3)c2)n1
25.7 µM (≈ 9.4 µg/mL)	3.69	CSCCC(NC(=O)c1sccc1Cl)c1nc2ccccc2[nH]1 (centres undefined)
1.6 µM (≈ 0.744 µg/mL)	3.4	COc1cc(C(=O)N2CCOCC2)ccc1Nc1ncc(Cl)c(-c2cnc3ccccn23)n1
8.9 µM (≈ 4.55 µg/mL)	3.7	COc1cc(N2CCN(C(C)=O)CC2)ccc1Nc1ncc(C(F)(F)F)c(-c2cnc3ccccn23)n1
0.9 µM (≈ 0.444 µg/mL)	3.4	COc1cc(N2CCN(C(C)=O)CC2)ccc1Nc1ncc(Cl)c(-c2cnc3c(N)cccn23)n1
1.4 µM (≈ 0.766 µg/mL)	3.5	COc1cc(N2CCN(C(C)=O)CC2)ccc1Nc1ncc(Cl)c(-c2cnc3cc(N4CCCC4)ccn23)n1
53.7 µM (≈ 26.7 µg/mL)	3.6	C=CCN(C(=O)NCc1ccc(OC)cc1)C1CCN(CCC(c2ccccc2)c2ccccc2)CC1

solubility thermodynamic (physchem [1])	logD (physchem [2])	SMILES
44.7 µM (≈ 20 µg/mL)	3.67	O=C(Nc1ccccc1)c1ccc(OCCCN2CCCC2)cc1OCc1cccc(F)c1
58.9 µM (≈ 23.2 µg/mL)	3.54	CCOC(=O)c1ccc(OCCC2(C#N)CCN(c3ccc(C)nn3)CC2)cc1
1.4 µM (≈ 0.587 µg/mL)	3.67	COc1ccc(C(=O)Nc2cccc(NC(=O)c3cccc(N(C)C)c3)c2)cc1OC
14.5 µM (≈ 7.24 µg/mL)	3.6	COc1cc2ncnc(Nc3cc(NC(=O)c4cccc(N5CCOCC5)c4)ccc3C)c2cc1OC
3 µM (≈ 1.4 µg/mL)	3.7	Cc1c(Oc2ccc(S(C)(=O)=O)cc2F)ncnc1OC1CCN(C(=O)OC(C)C)CC1
22.9 µM (≈ 10.6 µg/mL)	3.42	CCn1cc(NC(=O)Cc2ccc(Oc3ccnc4cc(OC)c(OC)cc34)cc2OC)cn1
21.4 µM (≈ 8.31 µg/mL)	3.4	Cc1nn(C2CCN(C)CC2)cc1-c1cnc(N)c(-c2nc3ccccc3o2)c1
8.3 µM (≈ 3.59 µg/mL)	3.78	COc1ccc2c(Oc3ccc(CC(=O)Nc4n[nH]c(C)c4C)c(OC)c3)ccnc2c1
4.8 µM (≈ 1.83 µg/mL)	3.42	Cc1cccc(Nc2nnc(C(=O)Nc3ccc(N4CCOCC4)nc3)o2)c1
8.7 µM (≈ 4.31 µg/mL)	3.72	O=C(Nc1ccc(N2CCOCC2)cc1)c1nnc(NC(=O)C2(c3ccc(Cl)cc3)CCCC2)o1
288 µM (≈ 119 µg/mL)	3.57	O=C(Nc1ccc(Cl)c(Cl)c1)N1CCN(C[C@@H]2CCCN(C3CC3)C2)CC1
257 µM (≈ 110 µg/mL)	3.58	COc1cc2ncnc(Nc3cccc(Cl)c3F)c2cc1CN1CCC[C@H]1C(N)=O
42.7 µM (≈ 17.8 µg/mL)	3.42	COc1cc2ncnc(Nc3cccc(Cl)c3F)c2cc1CN(C)[C@@H](C)C(N)=O
41.7 µM (≈ 17.4 µg/mL)	3.44	COc1cc2ncnc(Nc3cccc(Cl)c3F)c2cc1CN(C)[C@H](C)C(N)=O
195 µM (≈ 83.8 µg/mL)	3.58	COc1cc2ncnc(Nc3cccc(Cl)c3F)c2cc1CN1CCC[C@@H]1C(N)=O
2.7 µM (≈ 1.06 µg/mL)	3.63	CCCc1cc(Nc2nc(NCc3cc(C)no3)ncc2Br)n[nH]1
132 µM (≈ 76.9 µg/mL)	3.61	COc1cc2c(Nc3cc(CC(=O)Nc4cccc(F)c4F)[nH]n3)ncnc2cc1OCCCN(CCO)CC(C)C
21.9 µM (≈ 9.79 µg/mL)	3.4	COc1cc2c(Nc3ccc(Cl)cc3F)ncnc2cc1OCCCN1CCOCC1
69.2 µM (≈ 31.7 µg/mL)	3.6	CN(C)CCOc1ccc(-c2oc3ncnc(NC[C@@H]4CCCO4)c3c2-c2ccccc2)cc1

solubility thermodynamic (physchem [1])	logD (physchem [2])	SMILES
2.2 µM (≈ 1.14 µg/mL)	3.71	O=C(CO)N1CCC[C@@H]1COc1cccc2ncnc(Nc3ccc(OCc4ccccn4)c(Cl)c3)c12
28.2 µM (≈ 14 µg/mL)	3.4	Cc1ccc(Oc2ccc(Nc3ncnc4[nH]nc(OCCN5CCC(O)CC5)c34)cc2Cl)cn1
36.3 µM (≈ 9.09 µg/mL)	3.8	COc1cccc(-c2c[nH]c(-c3ccccc3)n2)c1
7.2 µM (≈ 2.4 µg/mL)	3.67	COc1cc2ncnc(Nc3ccc(F)c(Cl)c3)c2cc1OC
2 µM (≈ 0.687 µg/mL)	3.75	CCn1c2ccccc2c2cc(NC(=O)CCc3ccncc3)ccc21
151 µM (≈ 33.3 µg/mL)	3.8	c1ccc(-c2c[nH]c(-c3ccccc3)n2)cc1
3.6 µM (≈ 1.27 µg/mL)	3.5	CN(C)C(=O)[C@H](Cc1ccccc1)NC(=O)c1cc2cc(F)ccc2[nH]1
1.9 µM (≈ 0.988 µg/mL)	3.62	O=C(CO)N1CCC[C@H]1COc1cccc2ncnc(Nc3ccc(OCc4ccccn4)c(Cl)c3)c12
37.2 µM (≈ 19.2 µg/mL)	3.6	COc1cc(Nc2ncnc3cccc(O[C@H](C)C(=O)N4CCOCC4)c23)ccc1Oc1ccc(C)nc1
6.2 µM (≈ 2.96 µg/mL)	3.67	C[C@@H](Oc1cccc2ncnc(Nc3ccc(OCc4ccccn4)c(Cl)c3)c12)C(=O)N(C)C
27.5 µM (≈ 6.69 µg/mL)	3.65	Oc1ccc(-c2nc3ccc(O)cc3s2)cc1
100 µM (≈ 33.6 µg/mL)	3.51	Cc1ncc(-c2ccnc(Nc3ccc(N(C)C)cc3)n2)n1C(C)C
107 µM (≈ 33.4 µg/mL)	3.62	Cc1ncc(-c2ccnc(Nc3ccc(F)cc3)n2)n1C(C)C
209 µM (≈ 67.6 µg/mL)	3.43	COc1ccc(Nc2nccc(-c3cnc(C)n3C(C)C)n2)cc1
10 µM (≈ 3.58 µg/mL)	3.5	COc1cc2ncc(C(N)=O)c(Nc3cccc(Cl)c3)c2cc1OC
5.2 µM (≈ 2.25 µg/mL)	3.61	CC(C)Oc1cc(Oc2ccc(S(C)(=O)=O)cc2)cc(C(=O)Nc2nccs2)c1
3.9 µM (≈ 2.02 µg/mL)	3.54	O=C(N1CCN(c2ccncc2Cl)CC1)N1CCN(S(=O)(=O)c2ccc(C(F)(F)F)cc2)CC1
2.4 µM (≈ 1.05 µg/mL)	3.41	COCCCNS(=O)(=O)c1ccc(Nc2nccc(-c3cnc4ccccn34)n2)cc1
17 µM (≈ 5.8 µg/mL)	3.52	COc1ccc(Cn2cc3c(=O)n(C)c(=O)n(CC(C)C)c3c2)cc1
